Where “and” joins values, the source holds several entries; their conditions need not be identical. Equal entries are not always repeated. Entries after “also recorded” stand apart in the source; their conditions may differ.
What was measured:
[1] = system: patients having headaches and neck pain; test: Example 9: topical CBD at the back of the neck (Table 3); type: in vivo, human
Method: (§1) In Example 9, 13 patients having headaches and neck pain were treated with topical CBD at the back of the neck. The treatment comprised a dose of either 15 mg or 30 mg cannabinoid drugs, with the majority being CBD, the source of the CBD being CBD oil commercially available from CannaVest.

[2] = system: patients having seizures, encephalopathy, and/or spasticity; test: Example 8: topical CBD at the back of the neck (Table 2); type: in vivo, human
Method: as §1, with “8, 34” for “9, 13”, “seizures, encephalopathy, and/or spasticity” for “headaches and neck pain”

[3] = system: patient with stroke and focal seizures; test: Example 16: 1 g of 1.6% CBD cream nuchal, stroke and focal seizures, EEG; type: in vivo, human
Method: In Example 16, a patient presented with stroke and focal seizures. […]. FIG. 9 is a baseline EEG taken at the initial examination, showing left fronto-central seizure focus.
The patient was treated with 1 g of 1.6% CBD cream to the nuchal (back of the neck). […] They were able to return to work as a beterinarian and do surgery, which was unexpected as their Rehab MD had previously advised them that we would have to retire.

[4] = system: human patient having a remote head injury, s/p 4 craniotomies and intractable seizures; test: Example 7: topical cannabidiol 40 mg at the BONATH, intractable seizures, EEG; type: in vivo; conditions: cannabidiol 40 mg topical at BONATH
Method: The efficacy of a topical cannabidiol formulation was studied in a human patient having a remote head injury, s/p 4 craniotomies and intractable seizures. The patient was treated with cannabidiol 40 mg applied to the BONATH in a topical formulation. There was attenuation of associated focal EEG abnormalities.

[5] = twice a day CBD treatment to the nuchal region

C=C(C)[C@@H]1CCC(C)=C[C@H]1c1c(O)cc(CCCCC)cc1O [CBD, cannabidiol]
result after topical CBD, in words (Table 3) ([1]; 15 mg or 30 mg cannabinoid drugs (CBD oil) topical, one patient per entry): improved mobility and After week of daily use, headache free and calm, less anxious, and breathing easier. and Headache and neck pain resolved and Chronic daily headaches resolved after daily and Neck pain resolved and 2×/day with benefit for past 2 months. Injury and the neck, pain resolve and ROM improved and chronic headache and improved range and Pain resolved after several and All pain symptoms resolved after 3 weeks of
right facial weakness and decreased sensation improved ([1]; Bell's palsy, CBD to back of neck and region of stylomastoid foramen): 30%
pain (headache, neck, TMJ, back, thoracic) reduction ([1]; after topical CBD, single patients): 50% and diminished 50% for the first time. Prescribed and Chronic back pain improved 30% and Thoracic pain reduced 30% within and Headaches and neck pain improved 30% with
ROM of neck improved ([1]; person, 5 minutes after topical CBD to the neck): 80%. Will continue to use daily.
time after topical CBD at which the effect was seen ([1]; single patients): 5 minutes after topical CBD to back of neck, and 5-10 minutes and 5 minutes after topical CBD application to and ≤ 15 minutes and within 15 minutes after topical CBD and ≤ 10 minutes of topical CBD
time after topical CBD at which the effect was seen ([2]; 15 mg or 30 mg, back of neck, single patients): 15 minutes after application of topical CBD and 10 minutes after topical CBD to back of and state within 10 minutes. and ≤ 15 minutes and 3 minutes after topical CBD application, and 30 minutes after topical CBD to back of
seizure frequency reduced ([2]; after 2 months use, person with Aicardi syndrome, intractable seizures): reduced 60%. Prior doses of Lamicatal and
spasticity decrease/improvement ([2]; after one application/treatment of topical CBD to back of neck, single patients): 80% and Severe baseline spasticity improved 70% and spasticity by 30% from baseline. and 30% reduction in spasticity in all 4
duration of effect ([2]; person s/p head injury, topical CBD to back of neck): lasted 8 hours. Now on 3×/day.
EEG after CBD dose ([3]; 10 minutes after application of 1 g of 1.6% CBD cream (FIG. 10)): attenuated seizure focus
clinical result [3, 5]: remains seizure free; also recorded: helping their spastic weakness from the stroke
time seizure free after initiation of treatment [3, 5]: about 9 months
EEG post-treatment [4]: the right fast activity and sharp waves were attenuated

— US10632064B2, “Topical regional neuro affective therapy with cannabinoid combination products” (Afgin Pharma, LLC, priority 2015, dated 2020)
